From ChEMBL document CHEMBL5550171, “Poly (ADP-ribose) polymerase (PARP) inhibitors as anticancer agents: An outlook on clinical progress, synthetic strategies, biological activity, and structure-activity relationship” (Eur J Med Chem, 2024)
One block for each compound: values may come before it.

How the values were obtained:
[1] = system: Panel NCI-60 (60 carcinoma cell lines); experiment: Cytotoxicity against human Panel NCI-60 (60 carcinoma cell lines); format: functional, cell-based
MDA-MB-436 [2] = experiment: Antiproliferative activity against human MDA-MB-436 cells assessed as reduction in cell viability incubated for 72 hrs by MTT assay; format: functional, cell-based; conditions: MDA-MB-436, 72 h
[3] = biological target: T1, Poly [ADP-ribose] polymerase 1 (Homo sapiens, UniProt P09874); experiment: Inhibition of human recombinant PARP-1 by ELISA assay
MCF7 [4] = experiment: Antiproliferative activity against human MCF7 cells assessed as cell growth inhibition; format: functional, cell-based
MX1 = experiment: Antiproliferative activity against human MX1 cells assessed as cell growth inhibition; format: functional, cell-based
[5] = biological target: T1, Poly [ADP-ribose] polymerase 1; experiment: Inhibition of human PARP1
MCF7 [6] = experiment: Anticancer activity against human MCF7 cells assessed as reduction in cell viability; format: functional, cell-based
Caco-2 = experiment: Cytotoxicity against human Caco-2 cells assessed as inhibition of cell growth incubated for 72 hrs by CCK-8 assay; format: functional, cell-based; conditions: Caco-2, 72 h
[7] = Cytotoxicity against African green monkey Vero cells; format: toxicity, cell-based, Chlorocebus sabaeus
MDA-MB-436 [8] = experiment: Antiproliferative activity against human MDA-MB-436 cells assessed as reduction in cell viability; format: functional, cell-based
CAPAN-1 [9] = experiment: Antiproliferative activity against human CAPAN-1 cells assessed as reduction in cell viability incubated for 72 hrs by CCK-8 assay; format: functional, cell-based; conditions: CAPAN-1, 72 h
HCC1937 = experiment: Antiproliferative activity against human HCC1937 cells assessed as reduction in cell viability incubated for 72 hrs by CCK-8 assay; format: functional, cell-based; conditions: HCC1937, 72 h
MDA-MB-436 [10] = experiment: Antiproliferative activity against human MDA-MB-436 cells assessed as reduction in cell viability incubated for 72 hrs by CCK-8 assay; format: functional, cell-based; conditions: MDA-MB-436, 72 h
MCF7 [11] = experiment: Antiproliferative activity against human MCF7 cells assessed as reduction in cell growth incubated for 72 hrs by CCK-8 assay; format: functional, cell-based; conditions: MCF7, 72 h
MDA-MB-231 [12] = experiment: Antiproliferative activity against human MDA-MB-231 cells assessed as reduction in cell growth incubated for 72 hrs by CCK-8 assay; format: functional, cell-based; conditions: MDA-MB-231, 72 h
A549 = experiment: Antiproliferative activity against human A549 cells assessed as reduction in cell growth incubated for 72 hrs by CCK-8 assay; format: functional, cell-based; conditions: A549, 72 h
K562 = experiment: Antiproliferative activity against human K562 cells assessed as reduction in cell growth incubated for 72 hrs by CCK-8 assay; format: functional, cell-based; conditions: K562, 72 h
[13] = biological target: T1, Poly [ADP-ribose] polymerase 1; experiment: Inhibition of PARP1 (unknown origin)
MCF7 [14] = experiment: Antiproliferative activity against human MCF7 cells assessed as reduction in cell growth measured after 72 hrs by MTT assay; format: functional, cell-based; conditions: MCF7, 72 h
CAPAN-1 [15] = experiment: Antiproliferative activity against human CAPAN-1 cells assessed as reduction in cell growth; format: functional, cell-based
MCF7 [16] = experiment: Cytotoxicity against human MCF7 cells assessed as reduction in cell growth incubated for 72 hrs by alamar blue reagent based analysis; format: functional; conditions: MCF7, 72 h
MDA-MB-231 [17] = experiment: Cytotoxicity against human MDA-MB-231 cells assessed as reduction in cell growth incubated for 72 hrs by alamar blue reagent based analysis; format: functional; conditions: MDA-MB-231, 72 h
MDA-MB-436 [18] = experiment: Cytotoxicity against human MDA-MB-436 cells; format: functional, cell-based
[19] = biological target: T1, Poly [ADP-ribose] polymerase 1; experiment: Inhibition of human recombinant PARP1 expressed in Escherichia coli BL21(DE3)
[20] = biological target: Poly [ADP-ribose] polymerase 2 (Homo sapiens, UniProt Q9UGN5); experiment: Inhibition of PARP2 (unknown origin)
Poly [ADP-ribose] polymerase 2, sequence (Q9UGN5 whole entry): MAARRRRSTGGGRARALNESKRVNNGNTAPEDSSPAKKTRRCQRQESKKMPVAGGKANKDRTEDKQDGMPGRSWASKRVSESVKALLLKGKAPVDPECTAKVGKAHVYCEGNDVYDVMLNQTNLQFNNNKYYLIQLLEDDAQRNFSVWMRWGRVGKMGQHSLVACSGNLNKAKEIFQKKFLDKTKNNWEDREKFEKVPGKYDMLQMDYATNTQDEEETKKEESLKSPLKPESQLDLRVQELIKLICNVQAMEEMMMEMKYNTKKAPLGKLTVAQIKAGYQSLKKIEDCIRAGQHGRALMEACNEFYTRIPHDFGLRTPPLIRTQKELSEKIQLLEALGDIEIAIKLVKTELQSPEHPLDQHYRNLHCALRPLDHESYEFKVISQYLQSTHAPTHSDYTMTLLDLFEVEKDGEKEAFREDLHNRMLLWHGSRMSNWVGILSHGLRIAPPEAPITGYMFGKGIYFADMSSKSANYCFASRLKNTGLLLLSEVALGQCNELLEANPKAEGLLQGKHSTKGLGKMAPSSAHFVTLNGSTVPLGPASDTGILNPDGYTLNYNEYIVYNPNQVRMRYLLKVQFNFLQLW

T1 sequence (P09874 whole entry): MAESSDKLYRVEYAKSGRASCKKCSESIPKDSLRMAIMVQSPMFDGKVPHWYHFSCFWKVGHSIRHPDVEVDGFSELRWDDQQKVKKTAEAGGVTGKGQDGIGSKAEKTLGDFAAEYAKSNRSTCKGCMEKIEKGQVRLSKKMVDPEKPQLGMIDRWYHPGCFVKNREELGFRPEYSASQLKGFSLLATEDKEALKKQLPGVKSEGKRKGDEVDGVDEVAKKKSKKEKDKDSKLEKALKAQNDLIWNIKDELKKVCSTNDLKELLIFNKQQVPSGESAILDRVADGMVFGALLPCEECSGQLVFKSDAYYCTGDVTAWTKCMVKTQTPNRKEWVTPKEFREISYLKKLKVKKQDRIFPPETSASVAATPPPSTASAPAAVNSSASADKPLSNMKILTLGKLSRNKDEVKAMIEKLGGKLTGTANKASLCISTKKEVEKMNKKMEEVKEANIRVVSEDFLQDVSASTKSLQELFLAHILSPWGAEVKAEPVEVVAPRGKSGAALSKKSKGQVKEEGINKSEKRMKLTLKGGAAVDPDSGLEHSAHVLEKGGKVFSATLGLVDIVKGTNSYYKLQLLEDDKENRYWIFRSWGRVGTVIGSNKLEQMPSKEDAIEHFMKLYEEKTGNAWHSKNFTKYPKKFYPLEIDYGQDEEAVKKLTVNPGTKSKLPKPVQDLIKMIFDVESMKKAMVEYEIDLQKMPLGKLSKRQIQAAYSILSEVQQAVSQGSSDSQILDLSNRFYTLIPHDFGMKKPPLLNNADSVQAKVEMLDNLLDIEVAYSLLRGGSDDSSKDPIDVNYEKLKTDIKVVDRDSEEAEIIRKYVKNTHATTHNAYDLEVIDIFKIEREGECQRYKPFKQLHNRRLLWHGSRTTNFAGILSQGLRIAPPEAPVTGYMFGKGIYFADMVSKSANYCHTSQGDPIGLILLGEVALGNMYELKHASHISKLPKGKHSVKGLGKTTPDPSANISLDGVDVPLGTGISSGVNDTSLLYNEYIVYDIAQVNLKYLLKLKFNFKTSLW

Structure (SMILES): CC(=O)c1nnn(-c2ccc(Br)cc2)c1C
- IC50 [1]: 0.018 µM

- IC50 (MDA-MB-436 [2]): 43.6 µM
- IC50 [3]: 0.023 µM
Structure (SMILES): NC(=O)c1cccc2[nH]c(-c3ccc(C(=O)N4CCN(C(=O)c5ccc(Br)o5)CC4)cc3)nc12

- IC50 (MCF7 [4]): 37.9 µM
Structure (SMILES): O=C1NCC(c2ccc(-c3ccc(C(F)(F)F)cc3)cc2)Nc2ccccc21 (stereo not drawn)
- IC50 (MX1): 24.6 µM

- IC50 [5]: 0.00315 µM
Structure (SMILES): Cc1c(C(=O)/C=C/c2cccc([N+](=O)[O-])c2)nnn1-c1ccc(Br)cc1

- IC50 (MCF7 [6]): 0.32 µM
Structure (SMILES): CCOC(=O)CO/N=C(\N)c1ccc(C)cc1
- IC50 (Caco-2): 0.4 µM
- IC50 [7]: 0.48 µM

- IC50 (MDA-MB-436 [8]): 25.4 µM
Structure (SMILES): Cc1ccoc1C(=O)N1CCCN(C(=O)c2ccc(-c3nc4c(C(N)=O)cccc4[nH]3)cc2)CC1

Structure (SMILES): O=C(CCCc1ccc(N(CCCl)CCCl)cc1)N1CCN(C(=O)c2cc(Cc3n[nH]c(=O)c4ccccc34)ccc2F)CC1
- IC50 (CAPAN-1 [9]): 0.086 µM
- IC50 (HCC1937): 0.18 µM
- IC50 (MDA-MB-436 [10]): 0.013 µM
- IC50 (MCF7 [11]): 30.6 µM
- IC50 (MDA-MB-231 [12]): 53.8 µM
- IC50 (A549): 1.62 µM
- IC50 (K562): 10.4 µM

- IC50 [13]: 0.17 µM
- IC50 (MCF7 [14]): 11.4 µM
Structure (SMILES): O=C(Cn1c(=S)n(-c2ccccc2)c(=O)c2ccccc21)Nc1ccc2c(c1)C(=O)c1ccccc1C2

- IC50 [13]: 0.00324 µM
Structure (SMILES): O=C(NCCc1ccc(F)cc1)c1cc(Cc2n[nH]c(=O)c3ccccc23)ccc1F
- IC50 (CAPAN-1 [15]): 7.5 µM

Structure (SMILES): COc1ccc(Cc2nnc(-c3cccc(-c4cccc(C=O)c4)c3)o2)cc1
- IC50 (MCF7 [16]): 1.4 µM
- IC50 (MDA-MB-231 [17]): 29.3 µM

Structure (SMILES): COc1ccc(/C=C2\CC3(CC4C2OC(=O)C(C(C)=O)C4c2ccc(OC)cc2)OCCO3)cc1 (stereo not drawn)
- IC50 (MDA-MB-436 [18]): 7.47 µM

- IC50 [13]: 0.14 µM
- IC50 (MCF7 [14]): 10.6 µM
Structure (SMILES): O=C(Cn1c(=S)n(-c2ccccc2)c(=O)c2ccccc21)Nc1cccc2ccccc12

Structure (SMILES): COc1ccc(/C=C2\CC3(CC4C2=NN(C(N)=S)C4c2ccc(OC)cc2)OCCO3)cc1 (stereo not drawn)
- IC50 (MDA-MB-436 [18]): 0.67 µM

- IC50 [19]: 0.0163 µM
Structure (SMILES): Cc1ccoc1C(=O)N1CCN(C(=O)c2ccc(-c3nc4c(C(N)=O)cccc4[nH]3)cc2)C(C)C1 (stereo not drawn)

- IC50 (MCF7 [6]): 0.8 µM
Structure (SMILES): CCOC(=O)CO/N=C(\N)c1ccccc1
- IC50 (Caco-2): 0.43 µM
- IC50 [7]: 6.76 µM

- IC50 [13]: 22 µM
- IC50 [20]: 4.3 µM
Structure (SMILES): O=C1N[C@H](C2CC2)[C@@H](C(=O)N2CCC(N3CCCCC3)CC2)c2ccc(F)cc21
